pEC50, pIC50: −log10 of the molar value.
Experiments:
HCMV (strain AD169) [1] = experiment: Inhibition of HCMV replication, ELISA assay (Hs-68 cells); type: cell-based, Human Cytomegalovirus (HCMV); conditions: read-out: ELISA CMV EC50
How it was run: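 Hs-68 fibroblasts at 80–90% confluency infected with HCMV AD169 at MOI 0.01 PFU/cell for 2 h, washed, then cultured 8 days at 37 °C with test compound in DMEM/5% FBS. Late protein p28 detected by ELISA (mAb UL99, HRP/OPD, 450 nm); EC50 from % inhibition of replication.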

HCMV (strain AD169) [2] = experiment: Inhibition of HCMV replication, plaque reduction assay (PRA, Hs-68 cells); type: cell-based, Human Cytomegalovirus (HCMV); conditions: read-out: PRA CMV EC50
How it was run: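 Hs-68 monolayers (80–90% confluent) were infected with ~50 PFU HCMV AD169 for 2 h at 37°, then given compound in DMEM/5% inactivated FBS, refreshed after 4 days and kept 4 more days. Plaques were counted after formaldehyde fixation and crystal violet staining. EC50 derives from percent plaque reduction versus untreated wells.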

HSV-1 helicase-primase = target: T1, HSV-1 helicase-primase (Human herpesvirus 1, UniProt P10189+P10236); experiment: HSV-1 DNA-dependent ATPase assay (inhibition of HSV-1 helicase-primase); type: biochemical
T1 construct: made in house; host or cells: Sf21 insect cells triply infected with recombinant baculoviruses (UL5, UL8, UL52)
T1 sequence (P10192 whole entry): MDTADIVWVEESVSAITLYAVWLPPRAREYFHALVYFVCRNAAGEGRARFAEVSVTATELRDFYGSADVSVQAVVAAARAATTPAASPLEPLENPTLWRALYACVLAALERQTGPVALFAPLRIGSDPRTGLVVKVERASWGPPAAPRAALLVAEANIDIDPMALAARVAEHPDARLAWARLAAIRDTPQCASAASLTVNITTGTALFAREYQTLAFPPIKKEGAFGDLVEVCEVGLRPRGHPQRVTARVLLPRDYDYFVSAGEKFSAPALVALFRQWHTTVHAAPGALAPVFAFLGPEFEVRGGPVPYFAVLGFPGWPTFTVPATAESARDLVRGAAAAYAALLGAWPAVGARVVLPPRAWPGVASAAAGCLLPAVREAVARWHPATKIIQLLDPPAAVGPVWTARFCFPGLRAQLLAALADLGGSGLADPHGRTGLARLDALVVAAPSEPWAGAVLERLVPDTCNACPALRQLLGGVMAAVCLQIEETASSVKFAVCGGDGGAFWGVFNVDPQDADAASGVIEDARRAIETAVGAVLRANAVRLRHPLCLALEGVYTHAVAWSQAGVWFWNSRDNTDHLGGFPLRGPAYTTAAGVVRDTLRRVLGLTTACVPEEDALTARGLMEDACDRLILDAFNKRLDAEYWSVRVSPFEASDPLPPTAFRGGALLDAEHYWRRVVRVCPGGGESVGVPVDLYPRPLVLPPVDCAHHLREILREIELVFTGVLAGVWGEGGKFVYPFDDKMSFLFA
T1 sequence (P10236 whole entry): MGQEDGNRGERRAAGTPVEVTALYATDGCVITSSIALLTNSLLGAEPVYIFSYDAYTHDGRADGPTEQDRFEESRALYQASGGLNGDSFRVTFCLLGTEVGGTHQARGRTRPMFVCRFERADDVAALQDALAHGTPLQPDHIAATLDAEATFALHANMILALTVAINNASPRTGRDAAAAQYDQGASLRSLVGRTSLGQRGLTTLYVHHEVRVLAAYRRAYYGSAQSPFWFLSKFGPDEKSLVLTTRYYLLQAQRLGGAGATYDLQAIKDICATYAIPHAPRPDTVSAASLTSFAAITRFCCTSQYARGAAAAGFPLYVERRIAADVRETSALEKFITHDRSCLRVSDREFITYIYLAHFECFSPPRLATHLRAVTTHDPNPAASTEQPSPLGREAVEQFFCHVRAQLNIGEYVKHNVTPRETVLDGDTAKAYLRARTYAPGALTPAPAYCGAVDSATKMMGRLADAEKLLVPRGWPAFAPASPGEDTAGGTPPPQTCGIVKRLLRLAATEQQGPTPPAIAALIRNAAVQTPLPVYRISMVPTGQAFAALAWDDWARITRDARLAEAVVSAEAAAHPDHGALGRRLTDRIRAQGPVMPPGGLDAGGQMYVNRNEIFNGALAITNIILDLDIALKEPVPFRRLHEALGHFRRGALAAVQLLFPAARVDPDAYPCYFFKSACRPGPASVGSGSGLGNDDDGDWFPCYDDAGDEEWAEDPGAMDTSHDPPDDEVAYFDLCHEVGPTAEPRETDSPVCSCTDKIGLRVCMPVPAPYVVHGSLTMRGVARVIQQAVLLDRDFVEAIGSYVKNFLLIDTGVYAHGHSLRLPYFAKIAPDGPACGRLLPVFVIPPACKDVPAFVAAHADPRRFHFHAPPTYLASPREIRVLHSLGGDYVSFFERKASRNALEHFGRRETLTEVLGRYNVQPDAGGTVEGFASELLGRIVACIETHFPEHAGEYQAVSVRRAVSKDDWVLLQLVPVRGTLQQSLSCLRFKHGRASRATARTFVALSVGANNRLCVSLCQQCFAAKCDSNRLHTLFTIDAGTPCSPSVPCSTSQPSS
T1 sequence (P10189 whole entry): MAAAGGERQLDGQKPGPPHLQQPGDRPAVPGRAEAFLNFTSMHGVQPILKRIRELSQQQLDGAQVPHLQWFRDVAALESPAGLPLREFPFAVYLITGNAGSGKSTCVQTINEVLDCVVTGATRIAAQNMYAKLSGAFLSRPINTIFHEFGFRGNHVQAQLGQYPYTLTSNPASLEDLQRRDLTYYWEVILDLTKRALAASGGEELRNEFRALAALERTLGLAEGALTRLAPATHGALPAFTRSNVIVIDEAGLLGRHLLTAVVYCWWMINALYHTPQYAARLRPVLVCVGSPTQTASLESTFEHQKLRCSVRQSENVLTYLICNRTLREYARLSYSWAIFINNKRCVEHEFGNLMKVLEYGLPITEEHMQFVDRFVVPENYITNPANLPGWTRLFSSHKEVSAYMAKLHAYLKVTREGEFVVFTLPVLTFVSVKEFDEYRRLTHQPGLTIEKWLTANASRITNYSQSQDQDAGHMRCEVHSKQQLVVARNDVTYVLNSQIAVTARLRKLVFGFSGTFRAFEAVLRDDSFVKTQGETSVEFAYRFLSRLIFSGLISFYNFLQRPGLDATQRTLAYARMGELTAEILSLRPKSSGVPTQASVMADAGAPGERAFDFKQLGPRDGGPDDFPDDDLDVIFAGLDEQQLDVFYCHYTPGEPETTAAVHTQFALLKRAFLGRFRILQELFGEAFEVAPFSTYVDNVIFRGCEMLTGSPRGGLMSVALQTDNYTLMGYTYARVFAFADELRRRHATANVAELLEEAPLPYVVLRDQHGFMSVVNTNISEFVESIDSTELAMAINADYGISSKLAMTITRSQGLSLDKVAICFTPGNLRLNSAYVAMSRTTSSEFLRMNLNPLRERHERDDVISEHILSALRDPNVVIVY
How it was run: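 Holoenzyme (UL5/UL8/UL52) expressed in baculovirus-infected Sf21 cells and purified, used at 3 μg/mL with 4 mM ATP and 25 μM primed M13 ssDNA in HEPES pH 7.5, 5.5 mM MgCl2, 3.3% DMSO. Incubated 20 min at 34°. Released phosphate read by malachite green at 650 nm, and activity taken from net absorbance with versus without inhibitor.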

[3] = Human betaherpesvirus 5, AD169, Hs68, Group 2 Table 2 entries
[4] = Human betaherpesvirus 5, AD169, Hs68, Group 2 Table 1 entries
[5] = Human betaherpesvirus 5, AD169, Hs68, Group 1 Table 6 entries
[6] = Human betaherpesvirus 5, AD169, Hs68, Group 1 Table 5 entries

| SMILES | pEC50 (HCMV (strain AD169) [1]; [4]) | pEC50 (HCMV (strain AD169) [2]; [4]) | pIC50 (HSV-1 helicase-primase; Group 2 Table 1 entries) | pEC50 (HCMV (strain AD169) [1]; [5]) | pEC50 (HCMV (strain AD169) [2]; [5]) | pIC50 (HSV-1 helicase-primase; Group 1 Table 6 entries) | further results |
| --- | --- | --- | --- | --- | --- | --- | --- |
| CCCCN(CCCC)C(=O)C(=O)Nc1ccc(-c2csc(N)n2)cc1 [Example 1, N-{4-(2-Amino-4-thiazolyl)phenyl}-N',N'-dibutylethanediamide] |  |  |  |  |  |  | pEC50 (HCMV (strain AD169) [1]; [3]): 5.59; pEC50 (HCMV (strain AD169) [2]; [3]): < 5.40; pIC50 (HSV-1 helicase-primase; Group 2 Table 2 entries (A = C(O))): 5.15 |
| CCCCN(CCCC)C(=O)Nc1ccc(-c2csc(N)n2)cc1 [Example 1, N-{4-(2-Amino-4-thiazolyl)phenyl}-N,N-dibutylurea] | 5.39 | 4.43 | 5.38 |  |  |  |  |
| Nc1nc(-c2ccc(NC(=O)[C@@H]3CCC(=O)N3Cc3ccccc3)cc2)cs1 [Example 2] |  |  |  | 4.66 | 4.30 | 5.21 |  |
| Nc1nc(-c2ccc(NC(=O)[C@H]3CCC(=O)N3CC3CCCCC3)cc2)cs1 [Example 3] |  |  |  | 5.85 | 4.35 | 5.21 |  |
| CN(CCc1ccccn1)C(=O)Nc1ccc(-c2csc(N)n2)cc1 [Example 4] | 3.90 | < 3.84 | 5.43 |  |  |  |  |
| Nc1nc(-c2ccc(NC(=O)[C@@H]3CCCN3C(=O)c3ccccc3)cc2)cs1 [Example 5] |  |  |  | 4.20 | < 4.05 | 5.80 |  |
| Nc1nc(-c2ccc(NC(=O)[C@@H]3CCCN3C(=O)C3CCCCC3)cc2)cs1 [Example 6] |  |  |  | 4.55 | 4.66 | 7.28 |  |
| CC(C)(C)OC(=O)N1CCC[C@@H]1C(=O)Nc1ccc(-c2csc(N)n2)cc1 [Example 8] |  |  |  | 4.96 | < 4.08 | 5.12 |  |
| Nc1nc(-c2ccc(NC(=O)[C@H]3CCCN3C(=O)c3ccccc3)cc2)cs1 [Example 9] |  |  |  | 6.52 | < 4.06 | 5.80 |  |
| CN(C(=O)OC(C)(C)C)[C@@H](Cc1ccccc1)C(=O)Nc1ccc(-c2csc(N)n2)cc1 [Example 10] |  |  |  |  |  |  | pEC50 (HCMV (strain AD169) [1]; [6]): 5.60; pEC50 (HCMV (strain AD169) [2]; [6]): 4.92; pIC50 (HSV-1 helicase-primase; Group 1 Table 5 entries): 7.05 |
| Nc1nc(-c2ccc(NC(=O)[C@H]3CCCN3C(=O)C3CCCCC3)cc2)cs1 [Example 10] |  |  |  | 6.22 | 4.32 | 6.89 |  |
| CCCC(CCC)NC(=O)Nc1ccc(-c2csc(N)n2)cc1 [Example 11] | 5.89 | 4.89 | 4.77 |  |  |  |  |
| Nc1nc(-c2ccc(NC(=O)[C@H](Cc3ccccc3)N(Cc3ccccc3)C(=O)C3CCCCC3)cc2)cs1 [Example 11] |  |  |  |  |  |  | pEC50 (HCMV (strain AD169) [1]; [6]): 5.85; pEC50 (HCMV (strain AD169) [2]; [6]): 5.10; pIC50 (HSV-1 helicase-primase; Group 1 Table 5 entries): 6.40 |
| CC(C)(C)NC(=O)Nc1ccc(-c2csc(N)n2)cc1 [Example 12] | 5.22 | < 4.49 | 4.70 |  |  |  |  |
| CN(CCc1ccccn1)C(=O)Nc1ccc(-c2csc(NC(=O)OC(C)(C)C)n2)cc1 [Example 14] | 5.82 | 5.70 | < 4.00 |  |  |  |  |
| CCCCN(CCCC)C(=O)Nc1ccc(-c2csc(NC(=O)OC(C)(C)C)n2)cc1 [Example 15] | 6.00 | 5.96 | < 4.00 |  |  |  |  |
| CC(C)(C)CC(=O)N[C@@H](Cc1ccccc1)C(=O)Nc1ccc(-c2csc(N)n2)cc1 [Example 19] |  |  |  |  |  |  | pEC50 (HCMV (strain AD169) [1]; [6]): 5.42; pEC50 (HCMV (strain AD169) [2]; [6]): 4.68; pIC50 (HSV-1 helicase-primase; Group 1 Table 5 entries): 7.29 |
| Nc1nc(-c2ccc(NC(=O)[C@H](Cc3ccccc3)NS(=O)(=O)N3CCOCC3)cc2)cs1 [Example 25] |  |  |  |  |  |  | pEC50 (HCMV (strain AD169) [1]; [6]): 6.22; pEC50 (HCMV (strain AD169) [2]; [6]): 4.26; pIC50 (HSV-1 helicase-primase; Group 1 Table 5 entries): 6.77 |

From US6288091A, “Antiherpes virus compounds and methods for their preparation and use” (Boehringer Ingelheim Ltd., priority 1999, dated 2001)
